Measurements published in ChEMBL document CHEMBL1201862, “PubChem BioAssay data set” (2004).
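Step 1: Grow cells in 96-well plates. Step 2: Expose to compound for 48 hours at 5 concentrations. Step 3: Interpolate endpoints linearly; if unreached, use highest concentration. GI50 is the concentration that inhibits growth by half.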 Activity calls are given as the source filed them. No stated cut-off is given here; in the data, active = GI50 up to about 1.1 µM and inactive = higher.

Key:
Test in all cases: inhibition of tumour cell growth, NCI panel, 48 h
[1] = test system: A498
[2] = test system: A549
[3] = test system: CCRF-CEM
[4] = test system: DU-145
[5] = test system: HCT-15
[6] = test system: HL-60
[7] = test system: Hs-578T
[8] = test system: MDA-MB-231
[9] = test system: MDA-MB-435
[10] = test system: MOLT-4
[11] = test system: NCI-H226
[12] = test system: NCI/ADR-RES
[13] = test system: OVCAR-3
[14] = test system: SF-268
[15] = test system: SF-295
[16] = test system: SK-MEL-28
[17] = test system: SNB-75
[18] = test system: SR
[19] = test system: U-251
[20] = test system: UACC-62

O=C1c2cccnc2S(=O)(=O)N1c1ccc(Br)cc1
GI50 [1]: > 100 µM (inactive) | GI50 [2]: > 100 µM (inactive) | GI50 [3]: 43 µM (inactive) | GI50 [4]: > 100 µM (inactive) | GI50 [5]: > 100 µM | GI50 [6]: < 0.01 µM (active) | GI50 [7]: > 100 µM (inactive) | GI50 [8]: > 100 µM (inactive) | GI50 [9]: > 100 µM (inactive) | GI50 [10]: > 100 µM (inactive) | GI50 [11]: > 100 µM (inactive) | GI50 [12]: > 100 µM (inactive) | GI50 [13]: > 100 µM (inactive) | GI50 [14]: > 100 µM (inactive) | GI50 [15]: > 100 µM (inactive) | GI50 [16]: > 100 µM (inactive) | GI50 [17]: 95.1 µM (inactive) | GI50 [18]: 41.3 µM (inactive) | GI50 [19]: > 100 µM (inactive) | GI50 [20]: > 100 µM (inactive)

O=C(O)[C@@H]1CCC(=O)N1C(c1ccc2c(c1)OCO2)c1ccc2c(c1)OCO2
GI50 [1]: > 100 µM (inactive) | GI50 [2]: > 100 µM (inactive) | GI50 [3]: > 10 µM (inactive) | GI50 [4]: > 100 µM (inactive) | GI50 [5]: > 100 µM | GI50 [6]: > 100 µM (inactive) | GI50 [7]: > 100 µM (inactive) | GI50 [8]: > 100 µM (inactive) | GI50 [9]: > 100 µM (inactive) | GI50 [10]: > 100 µM (inactive) | GI50 [11]: > 100 µM (inactive) | GI50 [12]: > 100 µM (inactive) | GI50 [13]: > 100 µM (inactive) | GI50 [14]: > 100 µM (inactive) | GI50 [15]: > 100 µM (inactive) | GI50 [16]: > 100 µM (inactive) | GI50 [17]: > 100 µM (inactive) | GI50 [18]: > 100 µM (inactive) | GI50 [19]: > 100 µM (inactive) | GI50 [20]: > 100 µM (inactive)

C#CC1(O)C(COP(=O)(O)OCC2OC(n3ccc(NCCCCCCCCCCCCCCCCCC)nc3=O)C(O)C2O)OC(n2ccc(N)nc2=O)C1O (stereo not given)
GI50 [1]: 3.6 µM (inactive) | GI50 [2]: 0.0525 µM (active) | GI50 [3]: 0.929 µM (active) | GI50 [4]: 0.279 µM (active) | GI50 [5]: 0.353 µM | GI50 [6]: 0.298 µM (active) | GI50 [7]: 2.12 µM (inactive) | GI50 [8]: 1.03 µM (active) | GI50 [9]: 0.575 µM (active) | GI50 [10]: 0.418 µM (active) | GI50 [11]: 0.757 µM (active) | GI50 [12]: 0.556 µM (active) | GI50 [13]: 2.59 µM (inactive) | GI50 [14]: 1.34 µM (inactive) | GI50 [15]: 0.349 µM (active) | GI50 [16]: 1.78 µM (inactive) | GI50 [17]: 2.67 µM (inactive) | GI50 [18]: < 0.0124 µM (active) | GI50 [19]: 0.959 µM (active) | GI50 [20]: 0.614 µM (active)

c1ccc2c(c1)nc1n2CSCC1
GI50 [1]: > 100 µM (inactive) | GI50 [2]: > 100 µM (inactive) | GI50 [3]: > 100 µM (inactive) | GI50 [4]: > 100 µM (inactive) | GI50 [5]: > 100 µM | GI50 [6]: > 100 µM (inactive) | GI50 [7]: > 100 µM (inactive) | GI50 [8]: > 100 µM (inactive) | GI50 [9]: > 100 µM (inactive) | GI50 [10]: > 100 µM (inactive) | GI50 [11]: > 100 µM (inactive) | GI50 [12]: > 100 µM (inactive) | GI50 [13]: > 100 µM (inactive) | GI50 [14]: > 100 µM (inactive) | GI50 [15]: > 100 µM (inactive) | GI50 [16]: > 100 µM (inactive) | GI50 [17]: > 100 µM (inactive) | GI50 [18]: > 100 µM (inactive) | GI50 [19]: > 100 µM (inactive) | GI50 [20]: > 100 µM (inactive)

CCCC(=O)OCC1OC(n2cc(F)c(=O)[nH]c2=O)C(F)C1OC(=O)CCC (stereo not given)
GI50 [1]: 6.38 µM (inactive) | GI50 [2]: 10.1 µM (inactive) | GI50 [3]: 7.64 µM (inactive) | GI50 [4]: 15.3 µM (inactive) | GI50 [5]: > 100 µM | GI50 [6]: > 100 µM (inactive) | GI50 [7]: 26.5 µM (inactive) | GI50 [8]: > 100 µM (inactive) | GI50 [9]: 51.5 µM (inactive) | GI50 [10]: > 100 µM (inactive) | GI50 [11]: > 100 µM (inactive) | GI50 [12]: 7.48 µM (inactive) | GI50 [13]: 41.5 µM (inactive) | GI50 [14]: 8.53 µM (inactive) | GI50 [15]: 49.2 µM (inactive) | GI50 [16]: > 100 µM (inactive) | GI50 [17]: 43.5 µM (inactive) | GI50 [18]: 9.73 µM (inactive) | GI50 [19]: 10.9 µM (inactive) | GI50 [20]: 25.9 µM (inactive)

Cc1nn2c(=O)c([N+](=O)[O-])c(/C=C/c3ccc(F)cc3)nc2s1
GI50 [1]: 16.3 µM (inactive) | GI50 [2]: 9.06 µM (inactive) | GI50 [3]: 4.47 µM (inactive) | GI50 [4]: 16.2 µM (inactive) | GI50 [5]: 7.5 µM | GI50 [6]: 3.95 µM (inactive) | GI50 [7]: 11.2 µM (inactive) | GI50 [8]: 13.9 µM (inactive) | GI50 [9]: 4.33 µM (inactive) | GI50 [10]: 10.1 µM (inactive) | GI50 [11]: 11.4 µM (inactive) | GI50 [12]: 9.77 µM (inactive) | GI50 [13]: 4.28 µM (inactive) | GI50 [14]: 8.87 µM (inactive) | GI50 [15]: 11.8 µM (inactive) | GI50 [16]: 12.9 µM (inactive) | GI50 [17]: 9.27 µM (inactive) | GI50 [18]: 3.8 µM (inactive) | GI50 [19]: 4.84 µM (inactive) | GI50 [20]: 11.3 µM (inactive)

C#C/C=C\CCCCCCCCCCCCCC/C=C\CCCCC#CC(O)C#CCCCC/C=C\CCCCCC/C=C/C(O)C#C (stereo not given)
GI50 [1]: 30.1 µM (inactive) | GI50 [2]: 12.1 µM (inactive) | GI50 [3]: 5.25 µM (inactive) | GI50 [4]: 30.9 µM (inactive) | GI50 [5]: 22.5 µM | GI50 [6]: 13 µM (inactive) | GI50 [7]: 42.5 µM (inactive) | GI50 [8]: 34.2 µM (inactive) | GI50 [9]: 4.58 µM (inactive) | GI50 [10]: 10.1 µM (inactive) | GI50 [11]: 32.1 µM (inactive) | GI50 [12]: 31.5 µM (inactive) | GI50 [13]: 32.2 µM (inactive) | GI50 [14]: 17.2 µM (inactive) | GI50 [15]: 17.7 µM (inactive) | GI50 [16]: 21 µM (inactive) | GI50 [17]: 42.7 µM (inactive) | GI50 [18]: 14.1 µM (inactive) | GI50 [19]: 31.9 µM (inactive) | GI50 [20]: 11.8 µM (inactive)

CCCc1cn2c(/C=N/N=C(N)N)c(-c3c(OC)ccc(OC)c3[N+](=O)[O-])nc2s1
GI50 [1]: 21.2 µM (inactive) | GI50 [2]: 19.4 µM (inactive) | GI50 [3]: 2.84 µM (inactive) | GI50 [4]: 16 µM (inactive) | GI50 [5]: 18.2 µM | GI50 [6]: 7.46 µM (inactive) | GI50 [7]: 13.1 µM (inactive) | GI50 [8]: 4.07 µM (inactive) | GI50 [9]: 5.42 µM (inactive) | GI50 [10]: 1.94 µM (inactive) | GI50 [11]: 11.4 µM (inactive) | GI50 [12]: 19.8 µM (inactive) | GI50 [13]: 4.69 µM (inactive) | GI50 [14]: 11.4 µM (inactive) | GI50 [15]: 14.1 µM (inactive) | GI50 [16]: 4.84 µM (inactive) | GI50 [17]: 16.3 µM (inactive) | GI50 [18]: 2.03 µM (inactive) | GI50 [19]: 4.74 µM (inactive) | GI50 [20]: 8.24 µM (inactive)

CCSC12CC3c4cccc5c4C(CN5C(=O)c4ccccc4)CC3(O1)N(C)C2=O (stereo not given)
GI50 [1]: 32.1 µM (inactive) | GI50 [2]: 38.9 µM (inactive) | GI50 [3]: 28.6 µM (inactive) | GI50 [4]: 51.8 µM (inactive) | GI50 [5]: 29.4 µM | GI50 [6]: 22.7 µM (inactive) | GI50 [7]: 46.3 µM (inactive) | GI50 [8]: 27.9 µM (inactive) | GI50 [9]: 34.8 µM (inactive) | GI50 [10]: 22.2 µM (inactive) | GI50 [11]: 39.6 µM (inactive) | GI50 [12]: 29 µM (inactive) | GI50 [13]: 40.8 µM (inactive) | GI50 [14]: 42.7 µM (inactive) | GI50 [15]: 45.6 µM (inactive) | GI50 [16]: 48.4 µM (inactive) | GI50 [17]: 73.6 µM (inactive) | GI50 [18]: 28.7 µM (inactive) | GI50 [19]: 38.5 µM (inactive) | GI50 [20]: 22.5 µM (inactive)

CCOC(=O)/C(=N\Nc1ccc(-n2c(C)nc3ccc(Br)cc3c2=O)cc1)C(C)=O
GI50 [1]: 52.7 µM (inactive) | GI50 [2]: 53.8 µM (inactive) | GI50 [3]: 31.1 µM (inactive) | GI50 [4]: > 100 µM (inactive) | GI50 [5]: 64.4 µM | GI50 [6]: 5.32 µM (inactive) | GI50 [7]: 29.1 µM (inactive) | GI50 [8]: 31.9 µM (inactive) | GI50 [9]: 50.6 µM (inactive) | GI50 [10]: 25.2 µM (inactive) | GI50 [11]: 77.8 µM (inactive) | GI50 [12]: 52 µM (inactive) | GI50 [13]: > 100 µM (inactive) | GI50 [14]: 67.6 µM (inactive) | GI50 [15]: 48 µM (inactive) | GI50 [16]: 88.7 µM (inactive) | GI50 [17]: 30.7 µM (inactive) | GI50 [18]: 22.3 µM (inactive) | GI50 [19]: 59.6 µM (inactive) | GI50 [20]: 46.9 µM (inactive)
